One block for each molecule: values may come before it.
Tests used:
[1] = biological target: T1, Purified hog pancreatic lipase (type IV, Sigma) (Sus scrofa, UniProt P00591); assay: Hydrolysis of S-acyl substrates by purified hog pancreatic lipase, DTNB colorimetry at 412 nm, no PMSF; assay type: biochemical; conditions: for Relative activity (%): relative activity of BLME for lipase expressed as 100, 10 μl lipase solution
T1 construct: purchased Sigma Chemical Co. type IV; host or cells: hog pancreas
T1 sequence (P00591 1-450): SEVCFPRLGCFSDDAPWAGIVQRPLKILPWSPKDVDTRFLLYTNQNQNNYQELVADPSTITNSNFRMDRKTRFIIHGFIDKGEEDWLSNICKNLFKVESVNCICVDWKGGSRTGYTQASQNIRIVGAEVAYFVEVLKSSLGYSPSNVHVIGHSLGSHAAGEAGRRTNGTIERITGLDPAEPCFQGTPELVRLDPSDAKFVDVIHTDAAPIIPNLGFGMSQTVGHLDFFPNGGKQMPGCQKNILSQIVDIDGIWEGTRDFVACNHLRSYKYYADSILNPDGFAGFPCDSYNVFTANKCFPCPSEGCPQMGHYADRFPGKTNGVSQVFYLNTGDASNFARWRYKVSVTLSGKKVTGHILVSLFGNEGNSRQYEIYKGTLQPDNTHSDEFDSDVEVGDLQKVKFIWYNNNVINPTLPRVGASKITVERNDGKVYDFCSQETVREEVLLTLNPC
Protocol: The determination of lipase activity by the present invention is carried out based on the following principle. That is, a solution of the substrate [an S-acyl compound of the formula (I), (II), (III) or (IV)] in an alcohol is added to the reaction buffer solution containing the sample with lipase and a chromogenic sulfhydryl reagent which reacts with a SH-group-containing compound [hereinafter, referred to as "SH-compound" ] released from the substrate by lipase. The amount of the released SH-compound or the intensity of the colored reaction mixture is proportional to the lipase activity in the sample, and therefore, the lipase activity can be determined by subjecting the resulting colored reaction mixture to colorimetric readings. As a sulfhydryl reagent, 5,5'-dithiobis(2-nitrobenzoic acid) [hereinafter, referred to as "DTNB" ] is used. In case of the measurement of lipase activity by using the S-acyl compound (I) (X is O) and DTNB, it is assumed that the reaction will proceed as shown in the following scheme: [drawing 6]
(§1) To test tubes I and II are added (c) (1 ml) and a test sample (10 - 1,500 BALB unit of lipase or about 10 μl of human serum), and further to the test tube I is added (b) (20 μl; the concentration of PMSF: about 0.4 mM) and the mixture is allowed to stand at room temperature for 5 minutes to inactivate the existing serum caboxylesterase and/or arylesterase.
(§2) To the test tube I is further added a substrate (a) (0.1 ml). The test tubes I and II are kept for 30 minutes at 38° C, and immediately to the test tube II is added the substrate (a) (0.1 ml) and to these test tubes I and II is added acetone (d) (2 ml) to stop the reaction. After mixed well, the tubes I and II were centrifuged (700 × g, for 10 minutes) to remove insoluble serum proteins and turbidity due to serum lipids and the substrate. The optical density of the supernatant of the tube I is measured at 412 nm in a cuvette of 1 cm light path (OD412 ^1 cm ) against that of the tube II.
Purified hog pancreatic lipase (type IV, a product of Sigma Chemical Co.) is dissolved in 1 % human serum albumin solution to give a solution (10 μg/ml). The lipase activity in 10 μl of this solution (correspondingto 0.1 μ g of lipase) is determined in the same manner as described in Example 2 (substrate: BALB) in the absence of PMSF. The lipase activity measured is 800 BALB units.
One μmole of the released SH-group from the substrate gives 4.75 of OD412 ^1 cm under the conditions described in Example 11, and therefore 1 mg of the purified hog pancreatic lipase is calculated to hydrolyze the S-acyl group of the BALB to give a free SH-group at the rate of 1,670 μmoles/30 minutes.
The same lipase solution (10 μl) as prepared in Example 11 is treated in the same manner as described in Example 2 by using various S-acyl compounds as the substrate in the absence of PMSF. The relative activity of the S-acyl compounds are measured. The results are shown in Table 4, wherein the relative activity of BLME for lipase is expressed as 100.

lipase = assay: Inhibition of lipase by PMSF (rate of hydrolysis of S-acyl substrate, DTNB colorimetry); assay type: biochemical; conditions: substrate BLME; 0 - 2.0 mM of PMSF
Protocol: as §1
as §2, with “After mixed well, the tubes I and II were centrifuged (700 × g, for 10 minutes) to remove insoluble serum proteins and turbidity due to serum lipids and the substrate.” left out, “II. […]” for “II.”
(§3) In the same manner as described in Example 2, lipase of 1,100 BALB unit, carboxylesterase of 450 BALB unit or arylesterase of 60 BALB unit is treated (substrate: BALB), wherein the concentration of PMSF is varied, and then the rate of hydrolysis of BALB (relative activity) is measured.
In the same manner as described in Example 3, lipase of 1,100 MPB unit, carboxylesterase of 140 MPB unit or arylesterase of 68 MPB unit is treated (substrate: MPB), wherein the concentration of PMSF is varied, and then the rate of hydrolysis of MPB (relative activity) is measured. […]

carboxylesterase = assay: Inhibition of carboxylesterase by PMSF (rate of hydrolysis of S-acyl substrate, DTNB colorimetry); assay type: biochemical
Protocol: as §1, §2
Besides, test tube III is treated in the same manner as test tube I except that the enzyme inhibitor (b) is omitted.
In the same manner as described in Example 2, the determination of lipase activity is carried out except that the substrate (a' ) is used instead of (a).
as §3
(§4) In the same manner as described in Example 3, lipase of 1,100 MPB unit, carboxylesterase of 140 MPB unit or arylesterase of 68 MPB unit is treated (substrate: MPB), wherein the concentration of PMSF is varied, and then the rate of hydrolysis of MPB (relative activity) is measured.
In the same manner as described in Example 9, the determination of lipase activity is carried out by using BLME as the substrate. […]

arylesterase = assay: Inhibition of arylesterase by PMSF (rate of hydrolysis of S-acyl substrate, DTNB colorimetry); assay type: biochemical
Protocol: as §1
as §2, with “After mixed well, the tubes I and II were centrifuged (700 × g, for 10 minutes) to remove insoluble serum proteins and turbidity due to serum lipids and the substrate.” left out, “II. […]” for “II.”
as §3, §4

[2] = Storage / heat stability of reagent solutions in alcohol; assay type: physicochemical; conditions: heated at 120° C for 30 minutes
Source text: According to the present method, the measurement of lipase activity can be easily carried out by using so small amount of sample as 1/10 to 1/100 of that in the known methods described hereinbefore and within a shorter time. Moreover, the substrate becomes micellar merely by mixing and shaking with a buffer solution without addition of an emulsifier or vigorous stirring, and further, the solution of the substrate in an alcohol is stable at room temperature for more than 6 months.
The enzyme inhibitor (e.g. PMSF) is preferably preserved in the form of an alcoholic solution (e.g. ethanolic solution). PMSF in an alcohol solution is stable even if it is heated at 120° C for 30 minutes, but if the solution is mixed with the substrate (I), (II), (III) or (IV) in an alcohol, PMSF undergoes chemical reaction with the substrate to lose its action as an esterase-inhibitor, and therefore, both of the solutions must be preserved separately.

- Relative activity (%) ([1]; absence of PMSF): 35%
Compound: CCCC(=O)OC(CSC(=O)CCC)CSC(=O)CCC [drawing 28]

- lipase activity measured, OD412 (I-II) x 1,000 ([1]; 0.1 μg hog pancreatic lipase, 30 minutes at 38° C, absence of PMSF): 800 BALB units
- activity for lipase (in words) ([1]; absence of PMSF): extremely high activity
- rate of hydrolysis of the S-acyl group to free SH-group by 1 mg of lipase ([1]; per 1 mg purified hog pancreatic lipase, calculated from 4.75 OD412 per μmole SH): 1,670 μmoles/30 minutes
Compound: CCCC(=O)OCC(CSC(=O)CCC)SC(=O)CCC (stereo not shown) [BALB]

Continued, molecule first:

Compound: CCCC(=O)OC(CSC(=O)CCC)CSC(=O)CCC [2-butyroyloxy-1,3-bisbutyroylthiopropane]
- relative activity as fraction of the relative activity of BALB ([1]; absence of PMSF): less than 1/10

Compound: O=S(=O)(F)Cc1ccccc1 [PMSF, phenylmethylsulfonyl fluoride]
- Inhibition of the lipase activity (lipase): negligible
- 50 % inhibitory concentration for carboxylesterase as fraction of that for lipase (carboxylesterase; substrate BALB): about 1/100
- carboxylesterase activity inhibited (carboxylesterase; substrate BLME, 0.2 mM or more of PMSF): ≥ 90%
- 50 % inhibitory concentration for carboxylesterase as fraction of that for lipase (carboxylesterase; substrate MPB): about 1/200
- 50 % inhibitory concentration for arylesterase as fraction of that for lipase (arylesterase; substrate BALB): 1/300
- 50 % inhibitory concentration for arylesterase as fraction of that for lipase (arylesterase; substrate MPB): 1/400
- stability of alcohol solution on heating [2]: stable

Compound: CCCCCCCCCCCC(=O)OCCSC(=O)CCC [BLME, S-butyroyl-O-lauroylmercaptoethanol]
- Relative activity (%) ([1]; absence of PMSF): 100%
